Activity calls are given as the source filed them.
Key:
[1] = target: Induced myeloid leukemia cell differentiation protein Mcl-1 (Homo sapiens, UniProt Q07820); type: functional
[2] = insulin promoter down-regulators in MIN6 cells, imaging, high-content screening, mouse beta cells (AID 1628); type: functional
[3] = cytotoxicity in MIN6 insulinoma cells, dose response, cytotoxicity control, cell-based, mouse insulinoma (AID 2122); type: functional;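 further: confirmatory high-throughput counterscreen run to flag cytotoxic compounds; mouse MIN-6 beta cells carrying an insulin promoter eGFP reporter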
[4] = target: Voltage-gated inwardly rectifying potassium channel KCNH2 (Homo sapiens, UniProt Q12809); details: Potency;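 further: confirmatory quantitative high-throughput screen measuring inhibition of hERG channel activity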
Cytochrome P450 1A2 = target: T1, Cytochrome P450 1A2 (Homo sapiens, UniProt P05177);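 further: PubChem cytochrome P450 panel assay, CYP1A2 panel member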
T1 sequence (P05177 whole entry): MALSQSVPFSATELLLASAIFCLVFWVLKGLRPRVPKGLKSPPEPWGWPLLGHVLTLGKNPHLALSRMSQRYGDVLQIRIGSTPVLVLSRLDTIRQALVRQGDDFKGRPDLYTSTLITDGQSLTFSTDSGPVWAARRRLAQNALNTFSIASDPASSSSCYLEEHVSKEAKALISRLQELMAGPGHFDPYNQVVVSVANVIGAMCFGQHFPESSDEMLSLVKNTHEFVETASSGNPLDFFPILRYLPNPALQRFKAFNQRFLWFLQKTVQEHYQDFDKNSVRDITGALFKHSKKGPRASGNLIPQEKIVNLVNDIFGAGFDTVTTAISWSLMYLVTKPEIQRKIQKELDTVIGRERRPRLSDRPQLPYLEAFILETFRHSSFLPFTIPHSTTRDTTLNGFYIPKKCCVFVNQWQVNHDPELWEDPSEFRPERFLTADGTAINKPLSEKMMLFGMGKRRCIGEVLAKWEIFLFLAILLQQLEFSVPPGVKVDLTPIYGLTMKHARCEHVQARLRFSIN

[5] = target: T2, Alkaline phosphatase, tissue-nonspecific isozyme (Homo sapiens, UniProt P05186); assay: TNAP enzyme activators, dose response, selectivity assay for human IAP activator project, biochemical, TNAP isozyme, human IAP uHTS hits (AID 488886); type: functional;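 further: potency of compounds raising TNAP activity as a selectivity check on IAP activators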
T2 sequence (P05186 whole entry): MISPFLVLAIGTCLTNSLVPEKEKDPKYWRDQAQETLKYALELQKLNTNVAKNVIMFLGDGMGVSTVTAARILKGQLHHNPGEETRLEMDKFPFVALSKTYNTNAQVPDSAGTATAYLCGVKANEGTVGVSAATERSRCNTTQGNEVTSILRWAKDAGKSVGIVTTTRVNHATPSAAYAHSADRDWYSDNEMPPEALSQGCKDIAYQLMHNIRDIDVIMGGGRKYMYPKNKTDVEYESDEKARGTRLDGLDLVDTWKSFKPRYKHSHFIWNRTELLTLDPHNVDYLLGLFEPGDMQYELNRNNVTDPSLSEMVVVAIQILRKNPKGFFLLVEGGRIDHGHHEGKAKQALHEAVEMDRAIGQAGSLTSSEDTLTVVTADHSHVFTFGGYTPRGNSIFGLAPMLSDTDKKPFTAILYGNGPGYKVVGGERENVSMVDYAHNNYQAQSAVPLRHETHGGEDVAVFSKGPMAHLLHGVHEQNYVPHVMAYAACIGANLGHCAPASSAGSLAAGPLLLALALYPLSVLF

[6] = target: T3, Intestinal-type alkaline phosphatase (Homo sapiens, UniProt P09923); assay: human IAP activators, dose response, biochemical, luminescent, uHTS hits, set 2 (AID 488817); type: functional;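 further: potency of activators that raise enzyme activity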
[7] = target: Intestinal-type alkaline phosphatase (Mus musculus, UniProt P24822); assay: PubChem AID 488875; type: functional
[8] = target: T3, Intestinal-type alkaline phosphatase; assay: human intestinal alkaline phosphatase activators, dose response, biochemical, luminescence, uHTS hits (AID 463120); type: functional
Cytochrome P450 3A4 = Cytochrome P450 3A4 (Homo sapiens, UniProt P08684);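 further: CYP3A4 tested as one member of a cytochrome P450 panel screen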
Cytochrome P450 2C9 = Cytochrome P450 2C9 (Homo sapiens, UniProt P11712)
Cytochrome P450 2C19 = Cytochrome P450 2C19 (Homo sapiens, UniProt P33261); assay: Cytochrome panel assay with activity outcomes. Panel member name: p450-cyp2c19 Compounds with AC50 equal or less than 10 uM are considered active; type: functional; details: read-out: AC50
Hexokinase HKDC1 = target: T4, Hexokinase HKDC1 (Homo sapiens, UniProt Q2TB90); assay: SAR analysis of small molecule inhibitors of hexokinase domain containing I (HKDC1). [Related pubchem assays (depositor defined):AID493160, AID493190]; type: functional
T4 sequence (Q2TB90 whole entry): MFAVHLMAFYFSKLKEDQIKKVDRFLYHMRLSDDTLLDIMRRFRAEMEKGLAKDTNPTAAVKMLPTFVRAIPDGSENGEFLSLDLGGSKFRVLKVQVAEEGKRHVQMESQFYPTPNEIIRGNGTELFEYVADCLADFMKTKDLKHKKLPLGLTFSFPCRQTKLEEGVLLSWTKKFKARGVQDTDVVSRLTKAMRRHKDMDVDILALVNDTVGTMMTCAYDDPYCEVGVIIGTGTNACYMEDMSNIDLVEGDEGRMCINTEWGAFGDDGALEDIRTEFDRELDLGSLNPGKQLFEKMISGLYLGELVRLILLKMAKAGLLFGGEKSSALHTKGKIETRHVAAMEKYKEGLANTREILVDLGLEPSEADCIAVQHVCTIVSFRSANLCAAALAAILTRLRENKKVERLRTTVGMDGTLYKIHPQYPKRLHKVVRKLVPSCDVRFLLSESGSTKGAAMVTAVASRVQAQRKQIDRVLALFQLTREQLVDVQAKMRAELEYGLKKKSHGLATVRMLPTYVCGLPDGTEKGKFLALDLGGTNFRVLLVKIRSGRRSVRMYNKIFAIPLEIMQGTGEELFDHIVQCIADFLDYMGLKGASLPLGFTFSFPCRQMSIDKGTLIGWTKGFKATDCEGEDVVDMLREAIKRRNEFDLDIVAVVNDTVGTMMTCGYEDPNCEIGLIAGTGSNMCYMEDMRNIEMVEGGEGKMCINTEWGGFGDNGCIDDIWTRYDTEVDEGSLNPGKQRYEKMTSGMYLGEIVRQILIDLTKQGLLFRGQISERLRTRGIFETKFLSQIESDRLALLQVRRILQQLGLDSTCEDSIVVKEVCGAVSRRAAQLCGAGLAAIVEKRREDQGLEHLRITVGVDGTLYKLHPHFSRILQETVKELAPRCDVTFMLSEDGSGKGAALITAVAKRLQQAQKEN

Hexokinase-1 = target: T5, Hexokinase-1 (Homo sapiens, UniProt P19367); assay: SAR analysis of small molecule inhibitors of hexokinase domain containing I (HKDC1) in the hexokinase 1 selectivity assay. [Related pubchem assays (depositor defined):AID493160, AID493190]; type: functional
T5 sequence (P19367 whole entry): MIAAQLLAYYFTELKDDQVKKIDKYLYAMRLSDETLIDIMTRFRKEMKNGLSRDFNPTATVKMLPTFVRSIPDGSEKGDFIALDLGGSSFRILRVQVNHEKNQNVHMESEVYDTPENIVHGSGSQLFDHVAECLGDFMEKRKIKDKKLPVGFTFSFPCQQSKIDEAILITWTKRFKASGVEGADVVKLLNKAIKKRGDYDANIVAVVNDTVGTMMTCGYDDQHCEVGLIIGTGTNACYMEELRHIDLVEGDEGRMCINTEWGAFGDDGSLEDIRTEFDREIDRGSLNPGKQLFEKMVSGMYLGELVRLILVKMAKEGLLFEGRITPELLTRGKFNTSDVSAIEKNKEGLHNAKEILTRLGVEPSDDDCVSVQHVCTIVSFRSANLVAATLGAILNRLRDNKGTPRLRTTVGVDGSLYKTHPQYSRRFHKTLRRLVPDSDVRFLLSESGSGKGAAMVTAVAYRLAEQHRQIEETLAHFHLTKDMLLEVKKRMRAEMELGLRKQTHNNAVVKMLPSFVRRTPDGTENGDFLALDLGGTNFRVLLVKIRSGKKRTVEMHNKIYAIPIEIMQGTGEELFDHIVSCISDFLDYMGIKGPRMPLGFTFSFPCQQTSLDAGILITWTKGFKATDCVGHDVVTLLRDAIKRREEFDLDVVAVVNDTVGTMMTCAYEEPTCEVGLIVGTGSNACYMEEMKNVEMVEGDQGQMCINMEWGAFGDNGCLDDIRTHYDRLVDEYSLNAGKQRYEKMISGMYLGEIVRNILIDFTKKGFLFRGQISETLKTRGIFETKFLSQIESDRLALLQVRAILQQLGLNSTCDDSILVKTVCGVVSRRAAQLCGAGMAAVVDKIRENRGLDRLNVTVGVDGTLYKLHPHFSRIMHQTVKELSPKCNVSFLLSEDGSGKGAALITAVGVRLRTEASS

T3 sequence (P09923 whole entry): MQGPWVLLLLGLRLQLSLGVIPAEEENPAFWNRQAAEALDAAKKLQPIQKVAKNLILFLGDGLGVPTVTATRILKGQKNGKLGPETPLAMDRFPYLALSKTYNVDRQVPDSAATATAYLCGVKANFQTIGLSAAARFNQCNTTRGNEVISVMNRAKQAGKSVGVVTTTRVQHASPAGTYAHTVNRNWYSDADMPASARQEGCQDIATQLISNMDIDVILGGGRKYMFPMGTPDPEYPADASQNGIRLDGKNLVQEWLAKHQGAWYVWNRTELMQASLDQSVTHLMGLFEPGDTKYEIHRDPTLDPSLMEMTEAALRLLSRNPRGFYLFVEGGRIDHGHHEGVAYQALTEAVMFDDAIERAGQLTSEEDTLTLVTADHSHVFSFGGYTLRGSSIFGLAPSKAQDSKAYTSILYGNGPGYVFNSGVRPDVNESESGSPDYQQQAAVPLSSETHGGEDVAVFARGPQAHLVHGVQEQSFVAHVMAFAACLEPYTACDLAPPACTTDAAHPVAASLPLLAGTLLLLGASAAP
Chain of Voltage-gated inwardly rectifying potassium channel KCNH2 (Q12809 whole entry): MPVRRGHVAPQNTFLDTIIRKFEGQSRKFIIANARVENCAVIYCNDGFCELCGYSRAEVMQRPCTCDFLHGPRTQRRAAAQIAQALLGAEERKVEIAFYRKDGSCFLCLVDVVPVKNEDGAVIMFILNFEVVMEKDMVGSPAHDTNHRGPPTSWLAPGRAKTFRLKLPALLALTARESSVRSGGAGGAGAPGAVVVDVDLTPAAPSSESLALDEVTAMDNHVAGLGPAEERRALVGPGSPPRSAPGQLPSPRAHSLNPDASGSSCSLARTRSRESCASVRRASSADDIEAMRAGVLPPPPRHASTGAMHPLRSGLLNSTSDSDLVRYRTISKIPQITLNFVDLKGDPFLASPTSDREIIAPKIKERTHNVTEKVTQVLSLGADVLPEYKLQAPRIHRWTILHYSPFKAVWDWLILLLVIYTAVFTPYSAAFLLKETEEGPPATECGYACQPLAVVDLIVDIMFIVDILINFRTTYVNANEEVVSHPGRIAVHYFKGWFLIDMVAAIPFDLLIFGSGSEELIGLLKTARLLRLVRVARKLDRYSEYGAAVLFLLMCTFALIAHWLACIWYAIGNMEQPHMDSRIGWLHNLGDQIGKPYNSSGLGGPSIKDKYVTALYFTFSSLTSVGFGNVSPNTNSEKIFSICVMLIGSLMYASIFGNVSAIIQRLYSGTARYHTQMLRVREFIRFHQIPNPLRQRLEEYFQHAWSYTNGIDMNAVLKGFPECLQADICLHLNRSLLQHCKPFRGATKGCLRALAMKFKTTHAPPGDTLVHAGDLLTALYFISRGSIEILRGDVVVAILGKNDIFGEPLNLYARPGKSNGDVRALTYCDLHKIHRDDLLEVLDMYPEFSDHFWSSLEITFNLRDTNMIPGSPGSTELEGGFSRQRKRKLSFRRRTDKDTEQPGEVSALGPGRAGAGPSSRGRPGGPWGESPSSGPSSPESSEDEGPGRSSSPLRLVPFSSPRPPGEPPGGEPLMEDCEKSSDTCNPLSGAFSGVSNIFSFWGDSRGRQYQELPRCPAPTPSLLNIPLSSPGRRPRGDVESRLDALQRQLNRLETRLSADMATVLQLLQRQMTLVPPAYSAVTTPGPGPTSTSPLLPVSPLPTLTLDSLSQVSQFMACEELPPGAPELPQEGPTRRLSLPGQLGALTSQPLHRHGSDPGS
Chain of Cytochrome P450 2C9 (P11712 whole entry): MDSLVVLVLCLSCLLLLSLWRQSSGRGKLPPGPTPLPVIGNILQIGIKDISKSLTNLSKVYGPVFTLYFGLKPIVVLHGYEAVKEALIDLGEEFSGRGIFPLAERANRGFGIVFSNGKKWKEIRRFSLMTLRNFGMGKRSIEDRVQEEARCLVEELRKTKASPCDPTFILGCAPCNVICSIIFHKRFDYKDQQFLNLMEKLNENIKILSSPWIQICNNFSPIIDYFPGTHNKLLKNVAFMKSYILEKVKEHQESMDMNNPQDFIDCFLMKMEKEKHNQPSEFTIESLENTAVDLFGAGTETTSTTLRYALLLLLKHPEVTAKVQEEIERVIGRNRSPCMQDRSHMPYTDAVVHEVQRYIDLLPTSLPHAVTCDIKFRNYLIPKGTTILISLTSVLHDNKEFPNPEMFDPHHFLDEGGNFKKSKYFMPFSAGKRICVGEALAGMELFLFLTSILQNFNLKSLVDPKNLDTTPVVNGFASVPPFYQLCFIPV
Chain of Intestinal-type alkaline phosphatase (Mus musculus, UniProt P24822) (P24822 whole entry): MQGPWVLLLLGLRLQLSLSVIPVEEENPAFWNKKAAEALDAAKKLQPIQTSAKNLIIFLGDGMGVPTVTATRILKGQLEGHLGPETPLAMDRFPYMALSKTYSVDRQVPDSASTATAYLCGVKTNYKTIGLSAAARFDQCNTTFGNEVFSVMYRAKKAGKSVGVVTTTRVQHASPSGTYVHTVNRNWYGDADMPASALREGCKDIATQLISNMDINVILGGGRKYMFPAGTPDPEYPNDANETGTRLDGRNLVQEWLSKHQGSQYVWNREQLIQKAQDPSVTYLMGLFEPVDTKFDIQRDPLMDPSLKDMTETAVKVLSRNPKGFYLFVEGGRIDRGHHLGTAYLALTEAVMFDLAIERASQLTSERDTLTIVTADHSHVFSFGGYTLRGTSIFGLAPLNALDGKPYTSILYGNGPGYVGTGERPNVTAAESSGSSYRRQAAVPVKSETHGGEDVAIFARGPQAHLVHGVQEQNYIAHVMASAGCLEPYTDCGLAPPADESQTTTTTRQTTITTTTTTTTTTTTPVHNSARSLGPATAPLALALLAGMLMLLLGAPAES
Chain of Induced myeloid leukemia cell differentiation protein Mcl-1 (Q07820 whole entry): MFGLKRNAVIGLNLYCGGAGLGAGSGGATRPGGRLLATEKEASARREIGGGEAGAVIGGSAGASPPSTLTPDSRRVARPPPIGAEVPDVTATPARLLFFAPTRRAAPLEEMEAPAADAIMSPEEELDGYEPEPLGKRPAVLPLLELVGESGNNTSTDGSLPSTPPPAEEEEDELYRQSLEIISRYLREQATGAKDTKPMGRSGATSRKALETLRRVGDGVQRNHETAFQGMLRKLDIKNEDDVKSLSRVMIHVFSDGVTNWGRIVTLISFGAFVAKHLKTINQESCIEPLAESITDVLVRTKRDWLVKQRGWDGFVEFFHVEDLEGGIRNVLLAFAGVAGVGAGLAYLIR
Chain of Cytochrome P450 3A4 (P08684 whole entry): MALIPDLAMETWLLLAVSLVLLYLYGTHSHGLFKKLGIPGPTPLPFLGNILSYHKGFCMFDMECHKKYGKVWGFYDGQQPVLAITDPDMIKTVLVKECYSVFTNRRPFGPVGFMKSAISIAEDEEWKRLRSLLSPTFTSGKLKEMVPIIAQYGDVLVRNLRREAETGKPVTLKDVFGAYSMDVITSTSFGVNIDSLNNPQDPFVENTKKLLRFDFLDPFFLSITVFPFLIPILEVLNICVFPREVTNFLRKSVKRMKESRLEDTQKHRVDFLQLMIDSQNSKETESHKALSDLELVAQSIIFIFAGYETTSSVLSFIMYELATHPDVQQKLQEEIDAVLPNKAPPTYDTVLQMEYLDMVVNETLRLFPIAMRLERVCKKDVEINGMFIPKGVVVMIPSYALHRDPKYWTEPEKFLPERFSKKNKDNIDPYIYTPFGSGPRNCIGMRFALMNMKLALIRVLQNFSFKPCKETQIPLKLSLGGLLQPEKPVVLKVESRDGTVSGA
Chain of Cytochrome P450 2C19 (P33261 whole entry, the tested form may be a part): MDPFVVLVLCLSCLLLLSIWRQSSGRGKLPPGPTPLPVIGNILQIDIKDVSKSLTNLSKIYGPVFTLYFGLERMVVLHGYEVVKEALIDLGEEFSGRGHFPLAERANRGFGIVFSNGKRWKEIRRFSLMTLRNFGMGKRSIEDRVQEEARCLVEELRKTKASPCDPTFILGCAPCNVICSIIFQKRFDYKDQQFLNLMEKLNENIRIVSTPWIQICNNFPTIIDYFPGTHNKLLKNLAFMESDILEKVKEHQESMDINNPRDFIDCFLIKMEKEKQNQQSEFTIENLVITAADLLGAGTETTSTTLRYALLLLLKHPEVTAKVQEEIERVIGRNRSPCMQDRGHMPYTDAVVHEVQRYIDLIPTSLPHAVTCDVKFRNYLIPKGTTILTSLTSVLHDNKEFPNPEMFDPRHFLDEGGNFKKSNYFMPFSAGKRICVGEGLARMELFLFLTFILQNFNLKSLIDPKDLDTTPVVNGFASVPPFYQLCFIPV

With O=C(Nc1ccc(N2CCOCC2)cc1)Nc1ccc2nc(-c3ccco3)c(-c3ccco3)nc2c1 the IC50 [1] was 0.894 µM (active), the IC50 [2] was 1.91 µM (active) and the IC50 [3] was 3.55 µM (active).

For CC(=O)N[C@@H](Cc1c[nH]c2ccccc12)C(=O)OCc1cc(C(F)(F)F)cc(C(F)(F)F)c1 [L-732138], the AC50 [4] was 12.6 µM (inconclusive) and the AC50 (Cytochrome P450 1A2) was 31.6 µM (inconclusive).

In the case of O=C(CCCCC(=O)NNC(=O)COc1ccccc1)NNC(=O)COc1ccccc1, the EC50 [5] is reported as 10 µM (active), the EC50 [6] is reported as 9.87 µM (active) and the EC50 [7] is reported as > 100 µM (inactive). For the same compound, the EC50 [8] was 8.19 µM (active).

With CCOc1ccc(CSC(CC(=O)O)C(=O)O)cc1 (centres undefined) the AC50 (Cytochrome P450 3A4) was “inconclusive”, the AC50 (Cytochrome P450 2C9) was 15.8 µM (inconclusive) and the AC50 (Cytochrome P450 2C19) was 14.1 µM (inconclusive).

With O=C(O)CCSc1cc(NS(=O)(=O)c2ccccc2)c2ccccc2c1O the IC50 (Hexokinase HKDC1) was 7.53 µM (active) and the IC50 (Hexokinase-1) was 62.4 µM (inactive).

— ChEMBL document CHEMBL1201862, “PubChem BioAssay data set” (2004)
